# Reference: patent US9365551B2, “2-(benzyloxy) benzamides as LRRK2 kinase inhibitors” (Glaxo Group Limited, priority 2010, dated 2016)
# How the values were obtained:
# [1] = molecular target: T1, 6His-Tev-LRRK2 (1326-2527) (Homo sapiens, UniProt Q5S007); assay: LRRK2 peptide substrate assay; assay type: biochemical; details: mean pIC50 of multiple test results
# T1 construct: A LRRK2 cDNA encoding residues 1326-2527 was received from Dundee University; made in house; host or cells: Spodoptera frugiperda (Sf9) insect cells, baculovirus (pFB-HTb)
# T1 sequence (Q5S007 1326-2527): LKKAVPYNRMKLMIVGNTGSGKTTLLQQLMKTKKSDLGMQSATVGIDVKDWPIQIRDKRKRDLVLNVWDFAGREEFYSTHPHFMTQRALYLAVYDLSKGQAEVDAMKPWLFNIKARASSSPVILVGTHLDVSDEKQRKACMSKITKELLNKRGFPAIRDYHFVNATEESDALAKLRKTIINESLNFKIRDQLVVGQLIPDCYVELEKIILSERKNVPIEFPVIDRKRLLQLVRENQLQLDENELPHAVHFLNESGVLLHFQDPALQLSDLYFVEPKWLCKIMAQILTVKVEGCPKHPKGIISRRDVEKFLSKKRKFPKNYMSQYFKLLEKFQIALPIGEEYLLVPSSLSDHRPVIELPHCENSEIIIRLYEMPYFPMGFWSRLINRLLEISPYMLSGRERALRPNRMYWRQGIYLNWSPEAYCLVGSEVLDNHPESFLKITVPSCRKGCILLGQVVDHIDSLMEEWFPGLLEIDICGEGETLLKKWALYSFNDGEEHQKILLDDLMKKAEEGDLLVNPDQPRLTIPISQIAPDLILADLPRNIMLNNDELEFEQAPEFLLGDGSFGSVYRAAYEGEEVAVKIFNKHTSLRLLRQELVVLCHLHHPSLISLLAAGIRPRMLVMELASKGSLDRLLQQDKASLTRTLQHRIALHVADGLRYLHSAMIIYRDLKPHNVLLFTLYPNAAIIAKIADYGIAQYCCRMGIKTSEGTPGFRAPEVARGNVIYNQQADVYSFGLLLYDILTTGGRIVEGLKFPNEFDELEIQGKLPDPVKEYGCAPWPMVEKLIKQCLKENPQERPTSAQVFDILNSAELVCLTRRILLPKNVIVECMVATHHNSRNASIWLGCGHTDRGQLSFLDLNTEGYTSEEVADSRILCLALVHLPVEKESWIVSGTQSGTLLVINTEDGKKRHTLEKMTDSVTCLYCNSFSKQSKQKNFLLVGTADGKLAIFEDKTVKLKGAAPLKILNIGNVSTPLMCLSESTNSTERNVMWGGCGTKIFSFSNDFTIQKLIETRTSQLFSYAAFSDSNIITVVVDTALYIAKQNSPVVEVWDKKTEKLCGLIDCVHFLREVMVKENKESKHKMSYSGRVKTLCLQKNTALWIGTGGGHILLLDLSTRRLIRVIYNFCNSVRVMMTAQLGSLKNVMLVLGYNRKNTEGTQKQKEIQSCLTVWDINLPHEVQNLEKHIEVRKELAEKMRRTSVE
# Experimental: (§1) Compounds of formula (I) may be tested for in vitro kinase activity in accordance with the following assays, using the non natural, in vitro, substrates moesin and the Longer Biotin-LRRKtide. Moesin and a shorter version of the peptide were identified as substrates in Jaleel et al. (2007, Biochem J, 405: 307-317).
# LRRK2 Peptide Substrate Assay
# a) 100 nl of a 1:4 serial dilution of test compound with a top final assay concentration of 30 μM is added to certain wells in a low volume 384 well black plate. 100 nl of DMSO is used in certain wells as controls.
# (§2) b) 3 μl enzyme solution (80 nM purified recombinant 6His-Tev-LRRK2 (1326-2527) in assay buffer: 50 mM Hepes (pH 7.2), 10 mM MgCl2, 150 mM NaCl, 5% glycerol, 0.0025% triton X-100 and 1 mM DTT) is added to certain wells. 3 μl assay buffer is added to certain wells as a 100% inhibition (no enzyme) control. c) After incubation at room temperature for 30 minutes, 3 μl substrate solution (2 μM Biotin-LRRKtide peptide substrate and ATP at Km in assay buffer) is added to each well. Plates are then incubated for a further 1-2 hours at room temperature (incubation time varies depending upon rate and linearity of reaction with differing enzyme batches). d) 6 μl detection solution (50 nM Streptavidin SureLight® APC (PerkinElmer), 4 nM Eu-W1024 labelled anti-rabbit IgG antibody (PerkinElmer), 1:500 dilution (dilution determined on a batch to batch basis) of Phospho-Ezrin (Thr567)/Radixin (Thr564)/Moesin (Thr558) Polyclonal Antibody (New England Biolabs) and 60 mM EDTA in buffer: 40 mM Hepes (pH 7.2), 150 mM NaCl, 0.03% BSA) is added to each well. Plates are then incubated for a further 2 hours at room temperature before reading on a suitable plate reader (Excitation 330 nm, emission 620 nm (Eu) and 665 nm (APC)). Data is analysed using ActivityBase software (IDBS). LRRK2 AlphaScreen Desensitised Protein Substrate Assay a) 100 nl of a 1:4 serial dilution of test compound with a top final assay concentration of 30 μM is added to certain wells in a low volume 384 well black plate. 100 nl of DMSO is used in certain wells as controls. b) 3 μl enzyme solution (80 nM purified recombinant 6His-Tev-LRRK2 (1326-2527) in assay buffer: 50 mM Hepes (pH 7.2), 10 mM MgCl2, 150 mM NaCl, 5% glycerol, 0.0025% triton X-100 and 1 mM DTT) is added to certain wells. 3 μl assay buffer is added to certain wells as a 100% inhibition (no enzyme) control. c) After incubation at room temperature for 30 minutes, 3 μl substrate solution (200 nM GST-PS-Moesin (400-577) and 2 mM ATP in assay buffer) is added to each well. Plates are then incubated for 20 minutes at room temperature. d) 6 μl detection solution (1:250 dilution of AlphaLisa Protein A Acceptor beads (PerkinElmer), 1:64 dilution of AlphaLisa Gluthathione Donor beads (PerkinElmer) and 1:600 dilution (dilution determined on a batch to batch basis) of Phospho-Ezrin (Thr567)/Radixin (Thr564)/Moesin (Thr558) Polyclonal Antibody (New England Biolabs) in a buffer: 50 mM Hepes (pH 7.5), 250 mM NaCl, 60 mM EDTA, 1% PEG and 0.01% Brij 35) is added to each well. Plates are then incubated for a further 2 hours at room temperature in the dark before reading on an EnVision™ plate reader with AlphaScreen HTS turbo option module and AlphaScreen settings. Data is analysed using ActivityBase software (IDBS). Pharmacological Data
# [2] = molecular target: T1, 6His-Tev-LRRK2 (1326-2527); assay: LRRK2 AlphaScreen desensitised protein substrate assay; assay type: biochemical; details: mean pIC50 of multiple test results
# Experimental: as §1, §2
# [3] = Biotin-LRRKtide peptide substrate, ATP at Km, read-out: LRRK2 peptide substrate assay (pIC50) (converted)
# [4] = stated as threshold, read-out: pIC50 in the LRRK2 peptide substrate assay (bounds) (converted)
# [5] = GST-PS-Moesin (400-577) substrate, 2 mM ATP, read-out: LRRK2 alphascreen desensitized protein substrate assay (pIC50) (converted)
# [6] = stated as threshold, read-out: pIC50 in the LRRK2 alphascreen desensitised protein substrate assay (bounds) (converted)
smiles,measurement,setting,value
"Cn1cc(-c2cc(C(=O)Nc3ccnnc3)c(OCc3ccc(F)cc3)cc2C(=O)N2CCOCC2)cn1 [Example 27, 2-{[(4-Fluorophenyl)methyl]oxy}-5-(1-methyl-1H-pyrazol-4-yl)-4-(4-morpholinylcarbonyl)-N-4-pyridazinylbenzamide]",IC50,[1]; [3],50.1 nM
same,IC50,[1]; [4],≤ 100 nM
same,IC50,[2]; [5],1580 nM
same,IC50,[2]; [6],≤ 25100 nM
"Cn1cc(-c2cc(C(=O)Nc3cccc(Cl)c3)c(OCc3ccccc3)cc2CN2CCOCC2)cn1 [Example 49, 2-(benzyloxy)-N-(3-chlorophenyl)-5-(1-methyl-1H-pyrazol-4-yl)-4-(morpholinomethyl)benzamide]",IC50,[1]; [4],≤ 100 nM
same,IC50,[2]; [6],> 25100 nM
"Cn1cc(-c2cc(OCc3ccc(F)cc3)c(C(=O)Nc3cccnc3)cc2C(=O)N2CCOCC2)cn1 [Example 28, 2-{[(4-Fluorophenyl)methyl]oxy}-4-(1-methyl-1H-pyrazol-4-yl)-5-(4-morpholinylcarbonyl)-N-3-pyridinylbenzamide]",IC50,[1]; [4],≤ 1260 nM
same,IC50,[2]; [6],≤ 25100 nM
"CN1CCN(C(=O)c2cc(OCc3ccccc3)c(C(=O)Nc3ccccc3)cc2Cl)CC1 [Example 57, 2-(benzyloxy)-5-chloro-4-(4-methylpiperazine-1-carbonyl)-N-phenylbenzamide]",IC50,[1]; [4],≤ 100 nM
same,IC50,[2]; [6],≤ 25100 nM
"Cc1cc(OCc2ccccc2)c(C(=O)Nc2cccnc2)cc1Br [Example 6, 5-Bromo-4-methyl-2-[(phenylmethyl)oxy]-N-3-pyridinylbenzamide]",IC50,[1]; [4],≤ 10 nM
same,IC50,[2]; [6],≤ 316 nM
"Cn1cc(-c2cc(C(=O)Nc3cccnc3)c(OCc3ccccc3)cc2C(=O)N2CCOCC2)cn1 [Example 23, 5-(1-Methyl-1H-pyrazol-4-yl)-4-(4-morpholinylcarbonyl)-2-[(phenylmethyl)oxy]-N-3-pyridinylbenzamide]",IC50,[1]; [3],12.6 nM
same,IC50,[1]; [4],≤ 100 nM
same,IC50,[2]; [5],200 nM
same,IC50,[2]; [6],≤ 316 nM
"Cc1cc(C(=O)Nc2ccnnc2)c(OCc2ccccc2)cc1Br [Example 10, 4-Bromo-5-methyl-2-[(phenylmethyl)oxy]-N-4-pyridazinylbenzamide]",IC50,[1]; [3],6.31 nM
same,IC50,[1]; [4],≤ 10 nM
same,IC50,[2]; [5],100 nM
same,IC50,[2]; [6],≤ 316 nM
"Cn1cc(-c2cc(C(=O)Nc3cccnc3)c(OCc3ccc(F)cc3)cc2C(=O)N2CCOCC2)cn1 [Example 26, 2-{[(4-Fluorophenyl)methyl]oxy}-5-(1-methyl-1H-pyrazol-4-yl)-4-(4-morpholinylcarbonyl)-N-3-pyridinylbenzamide]",IC50,[1]; [4],≤ 100 nM
same,IC50,[2]; [6],≤ 316 nM
"Cc1nocc1NC(=O)c1cc(-c2cnn(C)c2)c(CN2CCOCC2)cc1OCc1ccc(F)cc1 [Example 18, 2-{[(4-Fluorophenyl)methyl]oxy}-N-(3-methyl-4-isoxazolyl)-5-(1-methyl-1H-pyrazol-4-yl)-4-(4-morpholinylmethyl)benzamide]",IC50,[1]; [3],12.6 nM
same,IC50,[1]; [4],≤ 100 nM
same,IC50,[2]; [5],398 nM
same,IC50,[2]; [6],≤ 25100 nM
"Cn1cc(-c2cc(C(=O)Nc3cccnc3)c(OCc3ccccc3)cc2CN2CCOCC2)cn1 [Example 4, 5-(1-Methyl-1H-pyrazol-4-yl)-4-(4-morpholinylmethyl)-2-[(phenylmethyl)oxy]-N-3-pyridinylbenzamide]",IC50,[1]; [3],15.8 nM
same,IC50,[1]; [4],≤ 100 nM
same,IC50,[2]; [5],126 nM
same,IC50,[2]; [6],≤ 316 nM
"O=C(Nc1ccnnc1)c1cc(C(F)(F)F)c(CN2CCCCC2)cc1OCc1ccccc1 [Example 36, 2-[(Phenylmethyl)oxy]-4-(1-piperidinylmethyl)-N-4-pyridazinyl-5-(trifluoromethyl)benzamide]",IC50,[1]; [4],≤ 1260 nM
same,IC50,[2]; [6],≤ 25100 nM
"O=C(Nc1cccnc1)c1cc(C(F)(F)F)c(C(=O)N2CCOCC2)cc1OCc1ccccc1 [Example 37, 4-(4-Morpholinylcarbonyl)-2-[(phenylmethyl)oxy]-N-3-pyridinyl-5-(trifluoromethyl)benzamide]",IC50,[1]; [3],39.8 nM
same,IC50,[1]; [4],≤ 100 nM
same,IC50,[2]; [5],794 nM
same,IC50,[2]; [6],≤ 25100 nM
"Cn1cc(-c2cc(C(=O)Nc3cccnc3)c(OCc3ccccc3)cc2C(=O)N2CCCCC2)cn1 [Example 31, 5-(1-Methyl-1H-pyrazol-4-yl)-2-[(phenylmethyl)oxy]-4-(1-piperidinylcarbonyl)-N-3-pyridinylbenzamide]",IC50,[1]; [3],6.31 nM
same,IC50,[1]; [4],≤ 10 nM
same,IC50,[2]; [5],50.1 nM
same,IC50,[2]; [6],≤ 316 nM
"O=C(Nc1cccc(Cl)c1)c1cc(C(F)(F)F)c(CN2CCOCC2)cc1OCc1ccccc1 [Example 52, 2-(Benzyloxy)-N-(3-chlorophenyl)-4-(morpholinomethyl)-5-(trifluoromethyl)benzamide]",IC50,[1]; [4],≤ 1260 nM
same,IC50,[2]; [6],> 25100 nM
"Cn1cc(-c2cc(C(=O)Nc3cccnc3)c(OCc3ccc(F)cc3)cc2CN2CCOCC2)cn1 [Example 17, 2-{[(4-Fluorophenyl)methyl]oxy}-5-(1-methyl-1H-pyrazol-4-yl)-4-(4-morpholinylmethyl)-N-3-pyridinylbenzamide]",IC50,[1]; [3],50.1 nM
same,IC50,[1]; [4],≤ 100 nM
same,IC50,[2]; [5],158 nM
same,IC50,[2]; [6],≤ 316 nM
"O=C(Nc1ccnnc1)c1cc(Br)c(CN2CCOCC2)cc1OCc1ccccc1 [Example 1, 5-Bromo-4-(4-morpholinylmethyl)-2-[(phenylmethyl)oxy]-N-4-pyridazinylbenzamide]",IC50,[1]; [4],≤ 100 nM
same,IC50,[2]; [6],≤ 25100 nM
